Measurements taken from patent US11638427B2, “Methods and compositions for altering secondary metabolites in plants” (Impello Biosciences, Inc, priority 2020, dated 2023).

Experiments:
Diaporthe rudis = test: Mold growth on jasmonate-infused plates, mold 3 isolated from avocado; format: cell-based; conditions: various concentrations in plates
Method: (§1) MDJ (TCI, CAS No.: 24851-98-7) and CJ were infused into potato dextrose agar (PDA, VWR Cat No.: 90003-494) petri dishes (100×15 mm VWR, Cat No: 25384-094) at concentrations ranging from 1 mM, 4.25 mM, and 10 mM. Each treatment was prepared using a technical grade stock solution of pure chemical (CJ or MDJ) diluted with TWEEN®-20 (VWR, CAS No.: […]). Culturable oyster mushroom and seedling mold served to create fungal mycelial plugs using a sterile 1 mL pipette tip (Eppendorf, Cat No.: 022491458) held upside down. The tips were used to make circle excisions (i.e., fungal plugs) from a mycelial mat grown on PDA with no biochemical infusions. Fungal pugs were then transferred to PDA infused with varying concentrations of CJ or MDJ, and control plates (no CJ or MDJ infusion) to monitor fungal growth at room temperature over time.
(§2) Based on the above results in Cannabis spp., additional fungi from various crops was sampled and tested. Plates comprising various concentrations of MDJ or MJ were prepared as described above.

Penicillium spp. = test: Mold growth on jasmonate-infused plates, mold isolated from orange; format: cell-based; conditions: various concentrations in plates
Method: as §1, §2

CBDRx Cherry variety = test: MeJA vs MDJ weekly foliar spray, terpene analysis; format: in vivo, Cannabis spp.; conditions: 4.25 mM or 7.5 mM weekly foliar spray
Method: (§3) To directly compare the efficacy of MeJA and MDJ, MeJA and MDJ were applied as a foliar spray once per week at either 4.25 mM or 7.5 mM concentrations to two high-CBD cannabis varieties. Clones from CBDRx Cherry variety and Sunrise Genetics' F2 variety were transplanted into 1-gallon pots with Red's soil and put into vegetative light cycle (18L/6D) on 4/12/21. All plants had two weeks in vegetative light cycle and were moved to flowering light cycle (12L/12D) on 4/26/21 for six weeks. Foliar applications started in week three of growth, [at flower initiation?]. Plants were then moved to a flowering light cycle. Each treatment group comprises three plants, including the control. Throughout the growing period, all plants were watered with JACK'S NUTRIENTS®. Plants were harvested on 6/7/21.
(§4) Treatments: Each concentration was prepared from a one molar stock solution with TWEEN®-20. Sprays were prepared weekly and diluted with RO water. Each plant was sprayed till dripping, each receiving approximately 75-100 ml.

[1] = system: Sunrise Genetics' F2 variety; test: MeJA vs MDJ weekly foliar spray, terpene analysis; format: in vivo, Cannabis spp.; conditions: for eucalyptol / guaiol / α-bisabolol: 4.25 mM or 7.5 mM MDJ, or 7.5 mM MeJA; for D-Limonene / Linalool / cis-B-ocimene: all applications (4.25 mM and 7.5 mM)
Method: as §3, §4

[2] = system: high-CBD hemp varieties Stormy Daniels and BaOX; test: Field foliar applications of MDJ, MeJA and CJ on high-CBD hemp, cannabinoid analysis; format: in vivo, Cannabis spp.; conditions: 7.5 mM foliar, four applications every 14 days in flowering
Method: However, MDJ is not known to have any significant bioactivity in planta and is not an endogenously produced phytohormone in cannabis, so it was unknown whether MDJ would afford the same functionality as MeJA. Similarly, CJ has likewise been relatively under-investigated as a plant elicitor despite being a decarboxylation product of Jasmonic Acid. Here, the effect of MDJ and CJ were analyzed (in addition to MeJA) in order to determine any difference in the effect of these treatments on field-grown high-CBD hemp varieties.
A hemp field experiment was conducted during the flowering phase of plant development in a private research field located in North Carolina. Sixty (60) plants from two distinct plant variety populations, Stormy Daniels and BaOX were selected for the trial. Each group of 60 plants was randomly divided into three groups of 20 plants and labeled accordingly to indicate the treatment group (T1, T2, T3). All plants were cultivated identically and subjected to approximately the same environmental conditions. Control, untreated plants were taken from the same field. Plants were treated according to treatment group, and each treatment group was subjected to four (4) applications of its respective treatment, with the first treatments applied on what was considered to be the first day of the flowering phase and repeated then again every successive 14 days up until just prior to harvest. Treatments were as follows: Control group=Control, Treatment 1=MDJ, Treatment 2=MeJA, Treatment 3=CJ.
All treatments were prepared in a stock (concentrated, non-aqueous) form by Impello Biosciences in their lab in Loveland, Colo. and labelled respectively prior to the start of the experiment. All treatments were prepared at a high stock concentration that allowed dilution by the applicator with 2 liters of water to a final 7.5 mM concentration of active ingredient (i.e., MeJA, MDJ, or CJ) for each treatment; 15-mL centrifuge tubes were used as preparation and storage vessels for each of the treatments. Preparation of the stock solutions ensured that the applicator could store the solutions prior to use at 4° C. to minimize degradation and allow for dilution immediately prior to use. In the stock containers, 2 mL of TWEEN®-20 was added to each respective elicitor compound as an emulsifier in order to reach a final oil-in-water emulsion once diluted with a concentration of 7.5 mM active ingredient and 0.1% surfactant (i.e., TWEEN®-20) v/v.
Plants were grown to maturity and 5 plants from each treatment and control group were sampled on Sep. 23, 2019. Care was taken to ensure samples were similar in appearance and spatial location between plants to minimize unintended variance in sample quality. The apical cola for each plant was harvested, and specifically, the top 3″ of the main cola. Yield data was not collected in this study, but no obvious differences in plant size or appearance were noted. Samples were submitted for chemical analysis (Avazyme, Inc, NC).
All models were linear models fit with Group (treatment) as the independent variable and the response variable was the corresponding compound. Data was filtered and comparison between treatments were conducted using the emmeans package and Tukey HSD for post-hoc corrections. Statistical significance was defined by a level of significance of p<0.05 in the Tukey test. Total cannabinoids included CBN, Δ9-THC, CBDV, CBG, CBD, CBC, CBDA, CBGA, THCA, and THCV. Total THC and total CBD were calculated by accounting for the additional weight of the carboxyl group in the acidic forms and adding those to the neutral/non-acidic forms.

[3] = 4.25 mM or 7.5 mM weekly foliar spray

Row | Structure (SMILES) | growth of mold isolated from avocado (mold 3) (Diaporthe rudis) | growth of mold isolated from orange (Penicillium spp.) | camphene (CBDRx Cherry variety) | total terpene content (CBDRx Cherry variety) | α-pinene (CBDRx Cherry variety) | β-pinene (CBDRx Cherry variety) | eucalyptol [1] | guaiol [1] | α-bisabolol [1] | D-Limonene [1] | Linalool [1] | cis-B-ocimene [1] | CBDA increase relative to the control group [2] | THCA increase relative to the control group [2] | Total CBD increase relative to the control group [2] | Total Cannabinoids increase relative to the control group [2] | Total THC increase relative to the control group [2] | further results
1 | CCCCCC1C(=O)CCC1CC(=O)OC (centres unmarked) [MDJ, methyl dihydrojasmonate] | effective at preventing the growth | effective at preventing the growth | significantly lowered | significantly lowered | significantly lowered | significantly lowered | Significant increases | Significant increases | Significant increases | significantly decreased | significantly increased | significantly decreased | 16.53% | 19.69% | 16.62% | 16.38% | 19.61% | β-myrcene content (CBDRx Cherry variety): significantly lowered; camphene [1, 3]: significantly lowered; p-pinene [1, 3]: significantly lowered; total terpene content [1, 3]: significantly lowered; α-pinene [1, 3]: significantly lowered; β-myrcene content [1, 3]: significantly lowered
2 | CC/C=C\C[C@H]1C(=O)CC[C@@H]1CC(=O)OC [MeJA, Methyl Jasmonate] | effective at preventing the growth | effective at preventing the growth | neither concentration of MeJA significantly altered | neither concentration of MeJA significantly altered | neither concentration of MeJA significantly altered | neither concentration of MeJA significantly altered | Significant increases | Significant increases | Significant increases | significantly decreased | significantly increased | significantly decreased | 5.36% | 5.36% | 5.75% | 5.64% | 6.06% | β-myrcene, α-pinene, camphene, β-pinene and total terpene content ([1]; only with the higher concentration of 7.5 mM): significant reduction
